Test results reported in patent US20220348572A1, “BRIDGED HETEROCYCLYL-SUBSTITUTED PYRIMIDINE COMPOUND, PREPARATION METHOD THEREFOR, AND PHARMACEUTICAL USE THEREOF” (The National Institutes of Pharmaceutical R&D Co., Ltd., priority 2019, published 2022).

Legend:
[1] = Pharmacokinetic study in rats after oral administration; format: in vivo, SD rats; settings: for pharmacokinetic parameters (in words): oral administration in SD rats; for AUC(0-t) / Cmax: rat, male SD rats, oral 5 mg/kg, plasma
Protocol: Experimental Example 5: Pharmacokinetic Studies of the Compounds of Example 1, Example 1-a, Example 1-b and Example 3 in Rats In order to investigate the blood concentration and pharmacokinetic parameters of the compounds of the present invention after oral administration, the corresponding LC/MS/MS assay and plasma treatment methods were developed for the compounds of the Experimental Examples. […] Male SD rats were orally administered at a dose of 5 mg/kg. Blood was orbitally collected and anticoagulated with sodium heparin. The plasma was deproteinated with acetonitrile. The samples were analyzed by LC/MS/MS method. Wherein, AUC<1000 μg/L*h is shown as C, AUC between 1000-2000 μg/L*h is shown as B, AUC>2000 μg/L*h is shown as A; Cmax<600 μg/L is shown as C, Cmax between 600-900 μg/L is shown as B, and Cmax>900 μg/L is shown as A.

[2] = system: IFN-2α-stimulated TYK2/JAK1-mediated pathway (pSTAT3); experiment: Inhibition of STAT3 signaling pathway of human whole blood (IFN-2α-induced pSTAT3, flow cytometry); format: cell-based
Protocol: Test Example 3: Inhibition Effect of the Compounds of the Present Invention on STAT3 Signaling Pathway of Human Whole Blood
Sample preparation: The compounds of the present invention and the control were dissolved in DMSO solvent respectively to formulate into 10 mM initial liquid. The maximum concentration of the compound was 10 μM, 3-fold dilution, 10 concentration gradients, and duplicate wells for each concentration gradient.
Experimental process: 20 μL of the compound of the present invention was added to a flow cytometer tube (BD, 352052) containing 180 μL anticoagulant sodium heparin. 20 μL PBS was added to the control. The sample was incubated at 37° C. for 30 min. 2 μL stimulating factor was added and then incubated at 37° C. for 20 min. 1 mL erythrocyte lysate was rapidly added, and the sample was repeatedly inverted 5-10 times or vortexed and then incubated at 37° C. for 10 min. The sample was centrifuged at 600 g for 6-8 min. The supernatant was discarded. The precipitate was vortexed until suspending. The cells were washed with 3 mL PBS and centrifuged at 600 g for 6-8 min. The supernatant was discarded. The precipitate was vortexed until suspending. 1 mL of membrane breaking solution was added, and the system was mixed gently, incubated on ice for 30 min, and centrifuged at 600 g for 6-8 min. The supernatant was discarded. The precipitate was vortexed until suspending. The cells were washed. 3 mL PBS was added. The system was centrifuged at 600 g for 6-8 min. The supernatant was discarded. The precipitate was vortexed untile suspending. The process was repeated twice. 100 μL PBS was added to each staining tube. IFN-2a was added for stimulation, and CD3 and pSTAT3 antibodies […] were added. The system was mixed well, protected from light and incubated at room temperature for 60 min. The cells were washed. 3 mL PBS was added. The system was centrifuged at 600 g for 6-8 min. The supernatant was discarded. The precipitate was vortexed until suspending. The precipitate was suspended in 150 μL in the dark for the flow cytometry analysis. The IC50 (half inhibitory concentration) of the compounds was obtained by using the following non-linear fitting equation:
Y=Bottom+(Top−Bottom)/(1+10^((Log IC50−X)*HillSlope));
X: Log value of the concentration of the compound;
Bottom: The minimum value, Top: The maximum value, HillSlope: Slope
The inhibition effect of by the compounds of the present invention on the IFN-2α-stimulated TYK2/JAK1-mediated pathway is shown in Table 3. IC50 value of 0-100 nM is shown as A, IC50 value of 100-300 nM is shown as B, IC50 value of 300-1000 nM is shown as C, IC50 value which is greater than 1000 nM is shown as D. NT means not tested.

TYK2 kinase = biological target: T1, TYK2 kinase (Homo sapiens, UniProt P29597); experiment: In vitro inhibitory activity on Tyk2 kinase (ADP-Glo Kinase Assay); format: biochemical; settings: TYK2 kinase 4 nM, 1 mM ATP
T1 sequence (P29597 897-1187 limits assumed): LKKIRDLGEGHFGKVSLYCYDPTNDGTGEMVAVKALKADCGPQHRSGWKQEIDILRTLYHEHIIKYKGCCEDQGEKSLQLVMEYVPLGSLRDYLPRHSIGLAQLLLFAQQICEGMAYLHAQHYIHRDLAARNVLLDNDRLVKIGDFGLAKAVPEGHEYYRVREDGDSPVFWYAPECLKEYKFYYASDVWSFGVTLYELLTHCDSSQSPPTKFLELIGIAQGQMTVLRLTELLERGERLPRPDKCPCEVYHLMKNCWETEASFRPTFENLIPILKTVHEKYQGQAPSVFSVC
Protocol: Test Example 2: Determination of In Vitro Inhibitory Activity of the Compounds of the Present Invention on Tyk2 Kinase Experimental materials: TYK2 (Invitrogen, PV4790), ATP (Promega, V915B), ADP-Glo Kinase Assay (Promega, V9101), IRS1 (Signalchem, 140-58-1000). Sample preparation: The compounds of the present invention and the control product were dissolved in DMSO solvent respectively to formulate into 10 mM initial liquid. The maximum concentration of the compound was 10 μM, 3-fold dilution, 10 concentration gradients, and duplicate wells for each concentration gradient. Experimental process: 0.1 μL of the compound to be tested was transferred into a 384 reaction plate (PE, 6007290) via Echo and centrifuged at 1000 rpm/min for 1 min. 5 μL TYK2 kinase (final concentration of 4 nM) was transferred into the 384 reaction plate, which was then centrifuged at 1000 rpm/min for 1 min, and incubated at 25° C. for 15 min. 5 μL substrate mixture (1 mM ATP, IRS1 0.05 mg/ml, kinase buffer solution) was transferred into the 384 reaction plate, which was then centrifuged at 1000 rpm/min for 1 min, and incubated at 25° C. for 60 min. 10 μL ADP-Glo was transferred into the 384 reaction plate, which was then centrifuged at 1000 rpm/min for 1 min, and incubated at 25° C. for 40 min. 20 μL test solution was transferred into the 384 reaction plate, which was centrifuged at 1000 rpm/min for 1 min and incubated at 25° C. for 40 min. RLU (Relative luminescence unit) signal was read by using an Envision multifunctional plate reader. The signal intensity was used to characterize the degree of the kinase activity. […] IC50 value of 0-100 nM is shown as A, IC50 value of 100-300 nM is shown as B, IC50 value of 300-1000 nM is shown as C, and IC50 value which is greater than 1000 nM is shown as D. NT means not tested.

| SMILES | pharmacokinetic parameters (in words) [1] | AUC(0-t) [1] [ng·h/mL] | Cmax [1] [ng/mL] | IC50 [2] [nM] | IC50 (TYK2 kinase) [nM] |
| --- | --- | --- | --- | --- | --- |
| Cn1cc(Nc2nccc(C3=C[C@H]4CC[C@@H](C3)N4C(=O)[C@@H]3CC3(F)F)n2)cn1 [Compound 1-b, ((S)-2,2-difluorocyclopropyl)((1R,5S)-3-(2-((1-methyl-1H-pyrazol-4-yl)amino)pyrimidin-4-yl)-8-azabicyclo[3.2.1]oct-2-en-8-yl)methanone] | good pharmacokinetic parameters | > 2000 | > 900 | < 100 | < 100 |
| Cn1cc(Nc2nccc(C3=CC4CCC(C3)N4C(=O)NCC(F)(F)F)n2)cn1 (stereo not drawn) [Compound 3, 3-(2-((1-methyl-1H-pyrazol-4-yl)amino)pyrimidin-4-yl)-N-(2,2,2-trifluoroethyl)-8-azabicyclo[3.2.1]oct-2-ene-8-carboxamide] | good pharmacokinetic parameters | 1000 to 2000 | 600 to 900 | < 100 | < 100 |
| Cn1cc(Nc2nccc(C3=CC4CCC(C3)N4C(=O)[C@@H]3CC3(F)F)n2)cn1 (stereo partly drawn) [Compound 1, ((S)-2,2-difluorocyclopropyl)(3-(2-((1-methyl-1H-pyrazol-4-yl)amino)pyrimidin-4-yl)-8-azabicyclo[3.2.1]oct-2-en-8-yl)methanone] | good pharmacokinetic parameters | > 2000 | > 900 | < 100 | < 100 |
